pIC50: −log10 of the molar value.
How the values were obtained:
Rattus norvegicus [1] = organism: Rattus norvegicus; experiment: Minimum effective dose required for anticonflict in rat perorally; assay type: functional; settings: po, read-out: MED
[2] = biological target: T1, GABA-A receptor; anion channel (Rattus norvegicus) (UniProt O09028+P15431+P18506+P18508+P19969+P20236+P23574+P23576+P28471+P28473+P30191+P62813+P63079+P63138+Q91ZM7+Q9ES14); experiment: Minimum effective dose required for anticonflict in rat intraperitoneally; assay type: functional
Mus musculus [3] = experiment: Effective dose required for inhibition of pentylenetetrazole (PTZ)-induced seizures in mice intraperitoneally; assay type: functional; settings: ip
[4] = biological target: T1, GABA-A receptor; anion channel (Rattus norvegicus); experiment: Ratio of the binding in the absence and presence of GABA was determined.; assay type: protein-complex assay
Mus musculus [5] = organism: Mus musculus; experiment: Effective dose required for inhibition of pentylenetetrazole (PTZ)-induced seizures in mice perorally; assay type: functional; settings: po
[6] = biological target: GABA-A receptor; anion channel; experiment: In vitro affinity for BZD site on GABA-A receptor from rat cerebral cortex using radioligand [3H]flunitrazepam; assay type: tissue-based
Rattus norvegicus [7] = organism: Rattus norvegicus; experiment: animal or person; settings: po, read-out: MED
Description: Minimum effective dose required for anticonflict in rat after peroral administration of the compound

Rattus norvegicus [8] = organism: Rattus norvegicus; experiment: animal or person; settings: ip, read-out: MED
Description: Minimum effective dose required for anticonflict in rat after intraperitoneal administration of the compound

Mus musculus [9] = experiment: In vivo effective dose required for inhibition of pentylenetetrazole (PTZ)-induced seizures in mice intraperitoneally; assay type: functional
Mus musculus [10] = organism: Mus musculus; experiment: animal or person; settings: po
Mus musculus [11] = experiment: Effective dose required for motor impairment in the horizontal screen in mouse intraperitoneally; assay type: functional
Rattus norvegicus [12] = experiment: In vivo minimum effective dose required for potentiation of EtOH-induced sleep time in rat; assay type: functional; settings: for minimal effective dose: Rattus norvegicus, read-out: MED
Rattus norvegicus [13] = experiment: In vivo minimum effective dose required for anticonflict effect in rat perorally; assay type: functional; settings: for minimal effective dose: Rattus norvegicus, po, read-out: MED
Mus musculus [14] = organism: Mus musculus; experiment: Effective dose required for motor impairment in the horizontal screen in mouse perorally; assay type: functional
Rattus norvegicus [15] = experiment: In vivo minimum effective dose required for anticonflict in rat intraperitoneally; assay type: functional; settings: for minimal effective dose: Rattus norvegicus, ip, read-out: MED
Mus musculus [16] = organism: Mus musculus; experiment: animal or person; settings: ip
Mus musculus [17] = experiment: In vivo effective dose required for inhibition of pentylenetetrazole (PTZ)-induced seizures in mice perorally; assay type: functional
Rattus norvegicus [18] = organism: Rattus norvegicus; experiment: Minimum effective dose required for anticonflict in rat perorally; value ranges from 1 to 3; assay type: functional; settings: po, read-out: MED
Mus musculus [19] = organism: Mus musculus; experiment: Effective dose required for inhibition of pentylenetetrazole (PTZ)-induced seizures in mice perorally; value ranges from 0.3 to 3; assay type: functional; settings: po
Mus musculus [20] = organism: Mus musculus; experiment: Effective dose required for inhibition of pentylenetetrazole (PTZ)-induced seizures in mice perorally; value ranges from 3 to 30; assay type: functional; settings: po
Mus musculus [21] = organism: Mus musculus; experiment: Ratio of effective dose required for motor impairment in the horizontal screen to the inhibition of pentylenetetrazole (PTZ)-induced seizures in mice; assay type: functional
Mus musculus [22] = experiment: In vivo effective dose required or inhibition of pentylenetetrazole (PTZ)-induced seizures in mice intraperitoneally; assay type: functional; settings: ip
Rattus norvegicus [23] = organism: Rattus norvegicus; experiment: Ratio of minimum effective dose for potentiation of EtOH-induced sleep time to anticonflict effect in rat; assay type: functional
Mus musculus [24] = experiment: In vivo effective dose required in vivo for inhibition of pentylenetetrazole (PTZ)-induced seizures in mice perorally; assay type: functional; settings: po
[25] = Mus musculus, ip, read-out: ED50
[26] = Mus musculus, po, read-out: ED50

SMILES | minimal effective dose (Rattus norvegicus [1]) [mg/kg] | MED [2] [mg/kg] | ED50 (Mus musculus [3]) [mg/kg] | GABA shift [4] | ED50 (Mus musculus [5]) [mg/kg] | pIC50 [6] | further results
O=C(Nc1ccccc1F)C1=C(O)CCn2c1nc1cc(F)ccc12 | > 30 | 10 | ≤ 1 | 1.8 | > 30 |  | 
CCOCN1C2=C(C(=O)Nc3cccs3)C(=O)CCN2c2ccc(F)cc21 | 3 |  | ≤ 1 | 2.1 | 0.2 | 9.00 | 
CN(C)CCN1C2=C(C(=O)Nc3ccccc3F)C(=O)CCN2c2ccc(F)cc21 | 3 | < 10 | 0.5 | 2.7 | ≤ 3 | 7.30 | 
O=C1CCN2C(=C1C(=O)Nc1ccccc1F)N(CCCO)c1cc(F)ccc12 | 10 | 10 | 0.1 | 1.8 | 0.5 | 8.96 | 
CCOCN1C2=C(C(=O)Nc3sccc3Cl)C(=O)CCN2c2ccc(F)cc21 | > 10 |  | ≤ 1 | 1.6 | 10 | 9.15 | 
CCOCN1C2=C(C(=O)Nc3ccccc3F)C(=O)CCN2c2ccc(F)c(F)c21 | 1 |  | < 1 | 1.7 | < 3 | 9.30 | 
COC(=O)OCCN1C2=C(C(=O)Nc3ccccc3F)C(=O)CCN2c2ccc(F)cc21 | 3 |  | ≤ 1 | 2.2 | 3 | 9.52 | 
CCOCN1C2=C(C(=O)Nc3ccc(C)s3)C(=O)CCN2c2ccc(F)cc21 | 0.3 |  | ≤ 1 | 2.3 | 0.5 | 9.15 | 
CCOCN1C2=C(C(=O)Nc3ccccc3F)C(=O)CCN2c2c1ccc(F)c2F | > 10 |  | 1 | 1.7 | > 30 | 6.90 | 
O=C1CCN2C(=C1C(=O)Nc1ccccc1F)N(CCN1CCOCC1)c1cc(F)ccc12 |  | > 10 | 1 | 2.2 | 30 | 8.21 | 
CCOCN1C2=C(C(=O)Nc3ccccc3F)C(=O)CCN2c2cc(F)cc(F)c21 | > 10 |  |  | 2.9 |  | 7.88 | 
COCCNCCN1C2=C(C(=O)Nc3ccccc3F)C(=O)CCN2c2ccc(F)cc21 | 10 | 10 | 1 | 1.8 | 1 | 8.13 | 
CN(C)CCCN1C2=C(C(=O)Nc3ccccc3F)C(=O)CCN2c2ccc(F)cc21 | > 10 | 10 | 3 | 1.4 | 30 | 8.48 | 
O=C1CCN2C(=C1C(=O)Nc1ccccc1F)N(CCc1ccccn1)c1cc(F)ccc12 | > 10 | 10 | 0.3 | 2 | 10 | 9.05 | 
CCOCN1C2=C(C(=O)Nc3ccccc3F)C(=O)CCN2c2ccc(Cl)cc21 | > 10 |  | < 1 | 2.8 | 2 | 9.30 | 
O=C1CCN2C(=C1C(=O)Nc1ccccc1F)N(CC1CCCO1)c1cc(F)ccc12 (stereo not drawn) | 3 |  | ≤ 1 | 2.2 | 3 | 8.64 | 
CCOCN1C2=C(C(=O)Nc3ccsc3)C(=O)CCN2c2ccc(F)cc21 | 0.3 |  | ≤ 1 | 1.7 | < 0.2 | 9.00 | 
CN(C)/C=N/CCN1C2=C(C(=O)Nc3ccccc3F)C(=O)CCN2c2ccc(F)cc21 | 30 |  | ≤ 1 | 2.1 | 30 | 7.46 | 

SMILES | minimal effective dose (Rattus norvegicus [1]) [mg/kg] | MED [2] [mg/kg] | ED50 (Mus musculus [3]) [mg/kg] | GABA shift [4] | ED50 (Mus musculus [5]) [mg/kg] | pIC50 [6] | further results
O=C1CCN2C(=C1C(=O)Nc1ccccc1F)N(CCn1ccnc1)c1cc(F)ccc12 | > 10 |  | 1 | 2.6 | 10 | 8.80 | 
CN1C(=O)CN=C(c2ccccc2)c2cc(Cl)ccc21 [DIAZEPAM] |  |  |  |  |  |  | minimal effective dose (Rattus norvegicus [7]): > 10 mg/kg; minimal effective dose (Rattus norvegicus [8]): 5 mg/kg; ED50 (Mus musculus [9]; [25]): 0.3 mg/kg; ED50 (Mus musculus [10]): 0.5 mg/kg; ED50 (Mus musculus [11]; [25]): 0.1 mg/kg; minimal effective dose (Rattus norvegicus [12]): 5 mg/kg; minimal effective dose (Rattus norvegicus [13]): 5 mg/kg; ED50 (Mus musculus [14]; [26]): 6.3 mg/kg; minimal effective dose (Rattus norvegicus [15]): 5 mg/kg; ED50 (Mus musculus [16]): 0.11 mg/kg; ED50 (Mus musculus [17]; po): 0.5 mg/kg
O=C1CCN2C(=C1C(=O)Nc1ccccc1F)N(CCO)c1cc(F)ccc12 | > 10 | 10 | ≤ 1 | 2.7 | < 30 | 8.92 | 
CCOCN1C2=C(C(=O)Nc3ccc(O)cc3F)C(=O)CCN2c2ccc(F)cc21 |  | 1 |  | 2 |  | 8.85 | minimal effective dose (Rattus norvegicus [18]): 1 mg/kg; ED50 (Mus musculus [19]): 0.3 mg/kg
CCOCCCN1C2=C(C(=O)Nc3ccccc3F)C(=O)CCN2c2ccc(F)cc21 | 1 |  | ≤ 1 | 1.6 | 0.3 | 9.52 | 
N=C(N)NCCN1C2=C(C(=O)Nc3ccccc3F)C(=O)CCN2c2ccc(F)cc21 | > 10 |  | > 1 | 1.7 | > 30 | 8.25 | 
CCOCCN1C2=C(C(=O)Nc3ccccc3F)C(=O)CCN2c2ccc(F)cc21 | 1 | < 10 | ≤ 1 | 3.2 | 0.3 | 9.30 | 
CCOCN1C2=C(C(=O)Nc3ccccc3F)C(=O)CCN2c2ccccc21 | 10 |  | > 1 | 2 | 3 | 6.82 | 
CC(=O)OCCN1C2=C(C(=O)Nc3ccccc3F)C(=O)CCN2c2ccc(F)cc21 | 3 |  | ≤ 1 | 1.2 | 3 | 9.70 | 
CCOCN1C2=C(C(=O)Nc3ccc(OC(=O)OC)cc3F)C(=O)CCN2c2ccc(F)cc21 | 1 |  | 1 | 3.2 |  | 8.37 | ED50 (Mus musculus [20]): 3 mg/kg
CCOCN1C2=C(C(=O)Nc3ccccc3F)C(=O)CCN2c2ccc(F)cc21 | 0.4 | 10 | 0.01 | 1.2 | 0.04 | 10.00 | Ratio (Mus musculus [21]): 675; ED50 (Mus musculus [11]; [25]): 0.3 mg/kg; ED50 (Mus musculus [22]): 0.01 mg/kg; minimal effective dose (Rattus norvegicus [12]): 0.3 mg/kg; minimal effective dose (Rattus norvegicus [13]): 0.4 mg/kg; ED50 (Mus musculus [14]; [26]): 27 mg/kg; Ratio (Rattus norvegicus [23]): 1; minimal effective dose (Rattus norvegicus [15]): 10 mg/kg; ED50 (Mus musculus [17]; po): 0.04 mg/kg
NCCN1C2=C(C(=O)Nc3ccccc3F)C(=O)CCN2c2ccc(F)cc21 | 10 | 10 | 0.3 | 2.7 | 10 | 8.29 | 
CCOCN1C2=C(C(=O)Nc3ccc(OC)cc3F)C(=O)CCN2c2ccc(F)cc21 | 0.03 | 0.1 |  | 2.2 | 0.3 | 9.40 | 
CCOCN1C2=C(C(=O)Nc3ccccc3F)C(=O)CCN2c2cc3ccccc3cc21 | > 10 |  | < 1 | 1.4 | > 30 | 8.66 | 
CCOCN1C2=C(C(=O)Nc3c(F)cccc3F)C(=O)CCN2c2ccc(F)cc21 | > 10 | > 10 | 1 | 1.6 | 3 | 9.22 | 
CCOCN1C2=C(C(=O)Nc3ccc(F)cc3F)C(=O)CCN2c2ccc(F)cc21 | 0.1 | 0.1 | ≤ 1 | 2 | < 3 | 8.92 | ED50 (Mus musculus [9]; [25]): < 1 mg/kg; Ratio (Mus musculus [21]): 3; ED50 (Mus musculus [11]; [25]): < 1 mg/kg; minimal effective dose (Rattus norvegicus [12]): 0.1 mg/kg; minimal effective dose (Rattus norvegicus [13]): 0.1 mg/kg; ED50 (Mus musculus [24]): < 3 mg/kg; ED50 (Mus musculus [14]; [26]): 10 mg/kg; Ratio (Rattus norvegicus [23]): 1; minimal effective dose (Rattus norvegicus [15]): 0.1 mg/kg
CN(C)c1ccc(CCN2C3=C(C(=O)Nc4ccccc4F)C(=O)CCN3c3ccc(F)cc32)cc1 |  | > 10 | 1 | 1.3 | < 30 | 8.07 | 
COCCOCN1C2=C(C(=O)Nc3ccccc3F)C(=O)CCN2c2ccc(F)cc21 | 3 | < 10 | 0.003 | 2.2 | 0.1 | 9.10 | ED50 (Mus musculus [9]): 0.003; Ratio (Mus musculus [21]): 300; ED50 (Mus musculus [11]): 0.07; MED (Rattus norvegicus [12]): 3; MED (Rattus norvegicus [13]): 3; ED50 (Mus musculus [14]): 30; Ratio (Rattus norvegicus [23]): 1; MED (Rattus norvegicus [15]): <=10; ED50 (Mus musculus [17]): 0.1

Reference: ChEMBL document CHEMBL1135951, “Potential anxiolytic agents. Part 4: novel orally-active N(5)-substituted pyrido[1,2-a]benzimidazoles with high GABA-A receptor affinity” (Bioorg Med Chem Lett, 2002)
